In US6254883A, “Composition for transdermal delivery of drugs” (Novagent Oy, priority 1996, dated 2001):
Entries after “also recorded” stand apart in the source; their conditions may differ.

Key:
[1] = In vitro release of salicylate from anionic ion-exchange fiber discs in Franz diffusion cells, 37° C. (experiments 1 and 2)
Source text: (§1) In the experiments below a woven cloth was used comprising a cotton textile fiber (RAIEX AK II) in which […] amine groups (-N^+ (CH3)3) had been grafted to the polysaccaride molecules. The surface weight of the cloth was 200 g/m^2. The thickness of the fiber was 30-40 μm, strength 10-20 kg s/mm^2, break stretch 15-40% and the ion exchanger capacity 3.3 mekv/g.
(§2) For release studies circular discs (diameter 25 mm) were cut from the above mentioned anionic ion-exchange fiber cloth. The fiber discs were washed by 5% NaHCO3 solution in a dropfunnel until all chloride was exchanged (tested by silver nitrate in HNO3 solution). […] The discs containing salicylate were dried in 37° C.
(§3) Drug release in vitro from the fiber discs at 37° C. was tested in Franz diffusion cells (Crown Glass Co. Inc., Somerville, N.J.) (FIG. 1). In the figure reference number 11 denotes the donor compartment, 14 receiver compartment, 15 thermostat, 16 stirring rod and 12 sample tube. […] The dissolution medium was pH 7.4 phosphate buffer saline (PBS, 143 mM, μ=0.15 (μ=ionic strength)) in experiment 1 and pH 7.4 phosphate buffer (6 mM, […]) in experiments 2 and 3. To assess the effect of the skin on drug release (experiment 3), a piece of epidermis 13 was placed between the fiber disc and buffer solution. At fixed times, samples of 250 μl were withdrawn and the drug concentration in the samples were determined by using HPLC (Beckman System Gold, Beckman Instrument, San Ramon, Calif.) with a Supelcosil LC-18-DB column (5 μm, 150×4.6 mm) (Supelco Inc., Rohm and Haab Co., Bellefonte, Pa.). The mobile phase was a binary mixture of methanol (40% v/v) and pH 7.0 phosphate buffer (60%). The detection wavelenght was 298 nm, and the flow rate of 1.0 ml/min, the retention time was 2.6 min.

[2] = In vitro release of salicylate from anionic ion-exchange fiber through skin (epidermis) in Franz diffusion cells (experiment 3); assay type: in vitro ADME
Source text: as §1, §2, §3

[3] = pH 7.0 phosphate buffer (200 mM) containing 6.27 g/l NaCl; donor 50 μg/ml; cited from earlier work
[4] = buffered solution pH=7; 30 mg tacrine per gram of fiber
Experimental: An acidic fiber ion exchanger was treated with this solution, wherein the following reaction occurred:
wherein R is the back bone of the fiber ion exchanger (polypropylene).
The ion exchange performance of this fiber ion-exchanger was tested in a Franz diffusion cell (see FIG. 1) to
a buffered solution (pH=7), and t

[5] = Delivery of tacrine from acidic fiber ion exchanger to blood through skin, Franz diffusion cell (Example 2); assay type: in vitro ADME; conditions: 30 mg tacrine per gram of fiber
[6] = phosphate buffer 6 mM, pH 7,4
Experimental: The cationic fiber discs were washed in 5% HCl solution in a dropfunnel until all sodium was exchanged.
Drug release from the fiber discs was tested in vitro in Franz diffusion cells (Crown Glass Co., Somerville, N.J.) at 37 C. The fiber discs were placed in the diffusion cells so that one side of the cationic ion-exchange fiber was exposed to the dissolution medium (phosphate-buffer6 mM, pH 7,4). Surface area of the fiber discs exposed to the buffer was 0,64 cm^2. […] The column used was Supelcosil LC-18-DB (5 m, 150 mm×4,6 mm), and the mobile phase included 22% of acetonitrile, 1% of triethylamine, and 77% of phosphate buffer at pH 6,5. Detection wavelength was 240 nm and flow rate was 1,0 ml per min.

[7] = Tacrine permeation across human skin in vitro, Side-by-Side diffusion chambers (Example 3); assay type: in vitro ADME
[8] = cited from earlier work
[9] = Tacrine (-HCl), cited from earlier work

With `O=C([O-])c1ccccc1O.[Na+]` [Sodium salicylate, sodium salicylate] the “duration of nearly constant / controlled release (in words)” value ([1]; anionic ion-exchange fiber, in vitro) was “two days; also recorded: several days”, the “duration of initial burst” value ([1]; experiment 1, PBS 143 mM) was less than 6 h and the “release rate after initial burst (nearly constant)” value ([1]; experiment 1, PBS 143 mM, pH 7.4, after initial burst) was 20-30 μg/h/cm^2. The “release rate in the beginning of the experiment (burst)” value ([1]; experiment 1, PBS 143 mM, pH 7.4, initial burst) was “about 350 μg/h/cm^2”, the “duration of constant release phase” value ([1]; experiment 2, phosphate buffer 6 mM, μ=0.20) was “about 50 h” and the “rate of salicylate release during the constant release phase” value ([1]; experiment 2, phosphate buffer 6 mM, μ=0.20, pH 7.4) was “about 60 μg/h/cm^2”. The “release rate and released amount, phosphate buffer vs PBS (in words)” value ([1]; phosphate buffer (6 mM, μ=0.20) compared with PBS (143 mM, μ=0.15)) was “higher in phosphate buffer (6 mM, μ=0.20) than in PBS solution (143 mM, μ=0.15)”, the “release kinetics through skin (in words)” value ([2]; after initial lag time) was “followed zero-order kinetic after initial lag time” and the “burst effect with skin (in words)” value ([2]; with skin) was “the burst effect disappeared”. The “lag time before steady state release” value ([2]; with skin) was “about 2 h” and the “in vitro permeability through skin” value [3] was “about 0.34 μg/cm^2 /h”.
With `Nc1c2c(nc3ccccc13)CCCC2` [tacrine, 9-amino-1,2,3,4-tetrahydroacridine] the “amount of tacrine delivered to buffered solution (in words)” value [4] was “pharmacologically significant amounts”, the “amount of tacrine delivered to blood through skin (in words)” value [5] was “pharmacologically significant amounts” and the “tacrine release rate from the cationic ion-exchange fiber” value ([6]; during the first 10 hours) was “about 375 g/h per cm^2”. The “duration of initial burst of tacrine release” value ([6]; 37 C.) was 6 to 12 h, the “tacrine released from the fiber after initial burst” value ([6]; after initial burst of about 6-12 h) was 50% and the “steady-state flux of tacrine across human skin” value ([7]; 5% solution, pH 7,4, in vitro) was 2,95 g/h per cm^2. The “duration of constant drug delivery from the fiber across skin” value ([7]; cationic ion-exchange fiber) was 120 h, the “delivery of tacrine across the skin from the cationic ion-exchange fiber” value ([7]; cationic ion-exchange fiber with 3,5% tacrine in HEPES-buffer) was “about 0,003 g/h per cm^2” and the lag-time of permeation ([7]; tacrine solution, human skin, pH 7,4) was “ca. 24 h”. The “side-effects above clinical concentration (in words)” value ([8]; above about 5-30 ng/ml, oral) was “unwanted side-effects are more likely to take place”, the “elimination half-life T1/2” value ([8]; human, in vivo) was 1,4-3,6 h and the “first-pass metabolism (in words)” value ([8]; in vivo) was “extensive first-pass metabolism”. The peroral bioavailability ([8]; peroral) was 5-35%, the “solubility in water (in words)” value [9] was “soluble in water” and the “charge at physiological pH (in words)” value ([9]; physiological pH, assumed) was “assumed to carry a positive charge”.
